From patent US12171230B2, “Herbicidal compositions” (Bayer Aktiengesellschaft, priority 2018, dated 2024)
Where “and” joins values, the source holds several entries; their conditions need not be identical. Equal values may be shown once.

Key:
Format in all cases: in vivo
[1] = test system: Alopecurus myosuroides; assay: Post-emergence herbicidal action against Alopecurus myosuroides
[2] = test system: Lolium rigidum; assay: Post-emergence herbicidal action against Lolium rigidum
[3] = test system: Panicum maximum; assay: Post-emergence herbicidal action against Panicum maximum
Protocol: When the observed efficacies exceed the formal sum total of the values of the tests with individual applications, they also exceed the expected value according to Colby, which is calculated using the formula below and is likewise regarded as an indication of synergism (cf. S. R. Colby; in Weeds 15 (1967) p. 20 to 22): E^C=A+B−([…])
Here: • A=efficacy of the active compound (A) in % at an application rate of a g a.i./ha; • B=efficacy of the active compound (B) in % at an application rate of b g a.i./ha; • E^C=expected value of the effect of the combination (A)+(B) in % at the combined application rate a+b g a.i./ha.
Seeds or rhizome pieces of mono- and dicotyledonous weeds are placed in sandy loam in pots, covered with soil and grown in a greenhouse under good growth conditions (temperature, air humidity, water supply). Three weeks after sowing, the test plants were treated at the three-leaf stage with the compositions according to the invention. The compositions according to the invention formulated as spray powders or as emulsion concentrates were sprayed onto the green plant parts in various dosages with an application rate of 300 to 800 l/ha of water (equivalent). After the test plants have been left to stand in the greenhouse under optimal growth conditions for about 3 to 4 weeks, the action of the preparations is scored visually in comparison to untreated controls. The compositions according to the invention also have good post-emergence herbicidal activity against a broad spectrum of economically important gramineous and broadleaf weeds.

[4] = test system: Phalaris minor; assay: Post-emergence herbicidal action against Phalaris minor
[5] = test system: Echinochloa crus-galli; assay: Post-emergence herbicidal action against Echinochloa crus-galli; settings: 100 g a.i./ ha, post-emergence
Summary of the method: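 Greenhouse pot test: three-leaf-stage plants, three weeks from sowing, sprayed with spray-powder or emulsion-concentrate formulations at several dosages (300 to 800 l/ha water). Efficacy rated visually against untreated plants some 3 to 4 weeks later, with Colby formula giving expected combination effect.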

[6] = test system: Lolium rigidum (resistant biotype); assay: Post-emergence herbicidal action against Lolium rigidum (resistant biotype)
[7] = test system: Bromus sterilis; assay: Post-emergence herbicidal action against Bromus sterilis; settings: 14 DAT; 1 g a.i./ha
[8] = test system: Matricaria inodora; assay: Post-emergence herbicidal action against Matricaria inodora; settings: for Herbicidal action: 1 g a.i./ha

In the case of `C=C[C@]1(C(=O)N[C@H]2CO[C@@H](C(=O)OC)C2)CC(c2cc(F)cc(F)c2)=NO1` (relative stereo) [Compound A3, methyl rel-(2R,4R)-4-[[(5S)-3-(3,5-difluorophenyl)-5-vinyl-4H-isoxazole-5-carbonyl]amino]tetrahydrofuran-2-carboxylate], the Herbicidal action ([1]; 14 DAT, 1 g a.i./ha) is reported as 30%, the Herbicidal action ([1]; 14 DAT, 4 g a.i./ha) is reported as 75% and the Herbicidal action ([1]; 28 DAT, 1 g a.i./ha) is reported as 10%. For the same molecule, the Herbicidal action ([1]; 28 DAT, 4 g a.i./ha) was 60%, the Herbicidal action ([2]; 14 DAT, 1 g a.i./ha) was 40% and the Herbicidal action ([2]; 28 DAT, 1 g a.i./ha) was 10%. For the same molecule, the Herbicidal action ([2]; 28 DAT, 4 g a.i./ha) was 70%, the “Herbicidal action 28 DAT [%] against Panicum maximum” value ([3]; 100 g of a.i./ha) was 82% and the “Herbicidal action 28 DAT against Panicum maximum” value ([3]; g of a.i./ha: 200, 100, 100 + 200) was 82%. For the same molecule, the Herbicidal action ([4]; 14 DAT, 1 g a.i./ha) was 20%, the Herbicidal action ([4]; 14 DAT, 4 g a.i./ha) was 85% and the Herbicidal action ([4]; 14 DAT, 16 g a.i./ha) was 85%. The Herbicidal action ([4]; 28 DAT, 1 g a.i./ha) was 10%, the Herbicidal action ([4]; 28 DAT, 4 g a.i./ha) was 85% and the Herbicidal action ([4]; 28 DAT, 16 g a.i./ha) was 85%. For the same molecule, the “Herbicidal action 37 DAT [%] against Echinochloa crus-galli” value [5] was 93%, the “Herbicidal action against Lolium rigidum (resistant biotype)” value (shortened to “Herbicidal action against Lolium rigidum”) ([6]; 14 DAT, 1 g of a.i./ha) was 15% and the “Herbicidal action against Lolium rigidum” value ([6]; 14 DAT, 4 g of a.i./ha) was 40%. The “Herbicidal action against Lolium rigidum” value ([6]; 28 DAT, 1 g of a.i./ha) was 0%, the Herbicidal action [7] was 30% and the “Herbicidal action 14 DAT against Matricaria inodora” value (from here on “Herbicidal action 14 DAT”) ([8]; 1 g of a.i./ha) was 0%. The “Herbicidal action 28 DAT against Matricaria inodora” value ([8]; 1 g of a.i./ha) was 0%, the “Herbicidal action in [%] 28 DAT against Matricaria inodora” value ([8]; 1 g of a.i./ha, post-emergence) was 0% and the “Herbicidal action 14 DAT” value ([8]; 4 g of a.i./ha) was 30%. For the same molecule, the “Herbicidal action 28 DAT against Matricaria inodora” value ([8]; 4 g of a.i./ha) was 30%, the “Herbicidal action in [%] 14 DAT against Matricaria inodora” value (shortened to “Herbicidal action in [%] 14 DAT”) ([8]; 4 g of a.i./ha) was 20% and the “Herbicidal action in [%] 28 DAT against Matricaria inodora” value ([8]; 4 g of a.i./ha, post-emergence) was 0%. The Herbicidal action ([8]; 14 DAT) was 0%, the “Herbicidal action against Matricaria inodora” value ([8]; 14 DAT, 4 g of a.i./ha) was 20% and the “Herbicidal action against Matricaria inodora” value ([8]; 14 DAT, 16 g of a.i./ha) was 20%. For the same molecule, the “Herbicidal action 14 DAT” value ([8]; 16 g of a.i./ha) was 20%, the “Herbicidal action 28 DAT against Matricaria inodora” value ([8]; 16 g of a.i./ha) was 15% and the “Herbicidal action in [%] 14 DAT” value ([8]; 16 g of a.i./ha) was 20% and 40%. The Herbicidal action ([8]; 28 DAT) was 0%, the “Herbicidal action against Matricaria inodora” value ([8]; 28 DAT, 1 g of a.i./ha) was 15% and the “Herbicidal action against Matricaria inodora” value ([8]; 28 DAT, 16 g of a.i./ha) was 15%. The “Herbicidal action 14 DAT” value ([8]; (Z61) post-emergence, g of a.i./ha: 1, 270, 30, 1 + 270, 1 + 30) was 0%, the “Herbicidal action in [%] 14 DAT” value ([8]; post-emergence, 14 DAT, 4 g of a.i./ha) was 30% and the “Herbicidal action in [%] 14 DAT” value ([8]; post-emergence, 14 DAT, 16 g of a.i./ha) was 40%.
